{
  "source": "patent US20230085803A1",
  "about": "“METHOD FOR SEARCHING AND SCREENING FOR TARGET OF ANTI-CANCER AGENT USING NON-HUMAN ANIMAL MODEL HAVING NOG ESTABLISHED CANCER CELL LINE TRANSPLANTED THEREIN” (CHUGAI SEIYAKU KABUSHIKI KAISHA, priority 2009, published 2023)",
  "key": {"[1]": {"test_system": "Well-differentiated adenocarcinoma (NOG-established colon cancer cell line)", "assay": "Histopathology of tumor masses after 5-FU administration, well-differentiated adenocarcinoma transplanted into NOG mice", "format": "in vivo, human", "conditions": "NOG mice transplanted with an NOG-established colon cancer cell line, after administration of 5-fluorouracil; legend does not name the line", "source_text": "(§1) The present inventors used NOG-established cancer cell lines that had been established so as to meet the criterion that human colon cancer, stomach cancer, lung cancer, breast cancer, or pancreatic cancer can be transplanted or passaged over three or more generations in NOG mice (Fujii E. et al., Pathol Int. 2008; 58: 559-567). In this Example, NOG-established cancer cell lines were subcutaneously transplanted into NOG mice. 28 days after transplantation, the mice were dissected, and the implants were excised and fixed with 4% paraformaldehyde at 4° C. for 16 to 24 hours. Then, the fixed samples were embedded and sliced into thin section samples by the AMeX method (Fujii E. et al., Pathol Int. 2008; 58: 559-567). The tissues were stained by HE and immunohistochemistry (IHC). Anti-E-cadherin antibody (DakoCytomation) and anti-fibronectin antibody (DakoCytomation) were used as a primary antibody. The visualization was carried out by LSAB method using DAB (DAB Map kit, Roche Diagnostics).\n(§2) Each NOG-established cancer cell line whose tissue morphology was (1) well-differentiated adenocarcinoma, (2) moderately-differentiated adenocarcinoma, or (3) poorly-differentiated adenocarcinoma in the donors' human colon cancer were subcutaneously transplanted into NOG mice. […]"}, "[2]": {"test_system": "moderately-differentiated adenocarcinoma (NOG-established colon cancer cell line)", "assay": "Histopathology of tumor masses after 5-FU administration, moderately-differentiated adenocarcinoma transplanted into NOG mice", "format": "in vivo, human", "conditions": "NOG mice transplanted with an NOG-established colon cancer cell line, after administration of 5-fluorouracil; legend does not name the line", "source_text": "as §1, §2"}},
  "data": [
    {"smiles": "O=c1[nH]cc(F)c(=O)[nH]1", "note": "[5-FU, 5-fluorouracil]", "values": [
      {"measurement": "poorly-differentiated glandular ducts (histopathology, FIG. 13)", "setting": "[1]", "result": "increase"},
      {"measurement": "budding structures (histopathology, FIG. 13)", "setting": "[2]", "result": "decrease"}
    ]}
  ]
}
